Measured values reported in patent US20210071180A1, “MICRORNA 584-5P COMPOSITIONS AND METHODS FOR TREATING CANCER” (BOARD OF REGENTS, THE UNIVERSY OF TEXAS SYSTEM, priority 2018, published 2021).

Tests used:
MB cells = experiment: Cell viability, proliferation, clonogenic and transwell migration assays; type: cell-based
Experimental: Cell viability and proliferation assays. MB cells transfected with miR-584-5p mimic or target siRNAs were seeded in 96-well plates at a density of 5×10^3 for D556Med and DAOY or 10×10^3 for D425Med and D458Med per well for 72 hours. Cell viability was assessed using CellTiter-Glo (Promega) or alamarBlue (Thermofisher), and proliferation was assessed using CyQuant Direct Cell Proliferation Assay (Thermofisher).
Next, the in vitro results were validated by determining the function of miR-584-5p in MB and by using an in vivo tumor xenograft model to test the efficacy of miR-584-5p-VCR combination therapy. […] In FIG. 3A, cell proliferation was measured by CyQuant Cell Proliferation Assay. The p-values were determined using standard Student t-tests. […] In FIG. 3B, cell proliferation was measured using an IncuCyte phase-only processing module. […] The p-value was calculated using a standard Student t-test. […] The p-value was calculated using a standard Student t-test. […] In FIG. 4F, The p-value was calculated using a standard Student t-test. […] Cell proliferation was measured using an IncuCyte phase-only processing module. ****, p<0.0001. […]
To determine whether miR-584-5p imparts its tumor-suppressing and VCR-sensitizing effect by downregulating HDAC1/eIF4E3 levels in MB, the function of eIF4E3 and HDAC1 in MB was investigated. […] The p-values in FIGS. 6C and D were calculated using a standard Student t-test. […]

D458Med cells = experiment: miRNA mimic library screen, CellTiter-Glo cell viability; type: cell-based; conditions: screen of 1,902 miRNA mimics, VCR at IC20
Experimental: To identify miRNAs that may sensitize VCR response in MB, a high-throughput screening platform was combined with a library of 1,902 chemically synthesized human miRNA mimics. The miRNAs are arrayed in a one-miRNA-one-well format in 96-well microtiter plates. Reverse transfection of Group 3/c-Myc-amplified D458Med cells was performed in triplicate in the presence and absence of a sublethal dose of VCR, which was optimized in four MB cell lines before the screen (FIG. 2A). Cells were subjected to VCR at an IC20 lethal concentration for 72 hours after 48 hours of transfection, and cell viability was measured (FIG. 1A). Candidate miRNAs were prioritized for validation by functional and interaction assays using standard Student t-tests (with pooled variance), false discovery rate (Q=0.5%), and by using the magnitude of response (lowest 2.5 percentile of the distribution of the μVCR/μControl ratios).
miRNA mimic library screen. The primary screen was conducted using MI00200 MISSION microRNA Mimic v.17, in which miRNA mimics were arrayed in a one-miRNA-one-well format in 96-well microtiter plates. […] Cell viability was assessed using CellTiter-Glo (Promega, Madison, Wis., USA) according to the manufacturer's protocol. ath-miR-416 or cel-miR-243 was added as a negative control, whereas siRNA against PLK-1 was used as a positive control in each plate. […]

[1] = system: DAOY cells stably expressing green fluorescent protein (GFP)-luciferase; experiment: Orthotopic intracranial tumor xenograft, bioluminescence imaging and survival
Experimental: For in vivo studies, orthotopic intracranial transplantation of the scrambled and miR-584-5p-transfected DAOY cells stably expressing green fluorescent protein (GFP)-luciferase was performed. […] The p-values were determined by the sum-of-squares F test. Error bars represent mean±SEM. […] The p-value was determined using the log-rank (Mantel-Cox) test. Error bars represent SE. ****, p<0.0001; ***, p<0.001.
Animals and intracranial xenografts. Athymic nude mice (nu/nu) were obtained from Harlan, USA. Three- to 5-week-old athymic nude mice (nu/nu) were anesthetized using isoflurane by inhalation. Using a Hamilton syringe, 1 million cells were stereotactically implanted into the right corpus striatum at a depth of 3.5 mm at a point 2.5 mm lateral to the midline and 1.5 mm anterior to the bregma. After the surgery, the animal recovered on a heating pad in a normal mouse cage to maintain its body temperature at 37°-37.2° C. An ocular lubricating ointment (AKORN) was administered until spontaneous blinking resumed. Starting from week 2, control group animals received dimethyl sulfoxide, whereas VCR group animals received 1 mg of VCR (Sigma-Aldrich) per kg of body weight intraperitoneally once per week for 6 weeks. The Xenogen Small-Animal Imaging System was used for subcellular imaging in live mice once per week. Animals were killed, and brains were fixed and analyzed.

## miR-584-5p: microRNA mimic; nucleotide sequence UUAUGGUUUGCCUGGGACUGAG (SEQ ID NO: 1); purchased from Thermofisher (chemistry not given here)
MB cells; D556Med cells cotransfected with eIF4E3/HDAC1 expression vector and miR-584-5p mimic
  long-term viability and migration elicited by HDAC1/eIF4E3 overexpression: rescued the increased long-term viability and migration
MB cells; vs miR-NC
  short-term and long-term viability as well as migration of MB cells: reduced
D458Med cells
  difference in cell viability in VCR-treated MB cells in comparison with untreated cells: highest magnitude of difference in cell viability
[1]; transfected DAOY cells, in comparison with scrambled-transfectant tumor
  MB tumor growth: dramatically reduced MB growth
[1]; vs scrambled-transfectant group, Kaplan-Meier
  survival of mice: lived significantly longer
